Data: PMC8913687, “Novel indolic AMPK modulators induce vasodilatation through activation of the AMPK–eNOS–NO pathway” (Scientific Reports, 2022)
Read-outs that look alike come from different tables or passages of the source. Blank lines part the entries; values can stand above or below the compound they belong to.

How the values were obtained:
AMPKα1β1γ1 [1] = molecular target: T1, AMPKα1β1γ1 (Homo sapiens, UniProt Q13131+Q9Y478); experiment: SPR at […]; also […] inhibition at […] in ADP-Glo kinase assay; type: binding
T1 construct: gene PRKAA1; recombinant AMPK isoform α1β1γ1; with AMPK β1 (PRKAB1) and γ1 (PRKAG1)
T1 sequence (Q13131 whole entry, canonical isoform): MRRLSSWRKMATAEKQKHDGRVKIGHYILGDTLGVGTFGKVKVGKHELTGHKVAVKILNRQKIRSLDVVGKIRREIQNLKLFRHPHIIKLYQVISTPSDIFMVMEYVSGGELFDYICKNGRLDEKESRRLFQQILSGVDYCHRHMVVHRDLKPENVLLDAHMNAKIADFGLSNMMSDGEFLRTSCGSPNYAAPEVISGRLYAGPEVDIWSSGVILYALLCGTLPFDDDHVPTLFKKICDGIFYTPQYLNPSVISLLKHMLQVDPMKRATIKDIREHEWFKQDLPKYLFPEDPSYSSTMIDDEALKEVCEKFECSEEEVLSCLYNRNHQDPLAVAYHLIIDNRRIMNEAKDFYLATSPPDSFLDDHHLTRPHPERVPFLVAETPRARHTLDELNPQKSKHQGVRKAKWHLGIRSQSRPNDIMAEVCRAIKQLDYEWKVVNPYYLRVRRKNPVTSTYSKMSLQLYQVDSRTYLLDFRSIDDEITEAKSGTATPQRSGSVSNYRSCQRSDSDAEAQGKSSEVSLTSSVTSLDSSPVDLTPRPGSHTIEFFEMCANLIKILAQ
T1 sequence (Q9Y478 2-270): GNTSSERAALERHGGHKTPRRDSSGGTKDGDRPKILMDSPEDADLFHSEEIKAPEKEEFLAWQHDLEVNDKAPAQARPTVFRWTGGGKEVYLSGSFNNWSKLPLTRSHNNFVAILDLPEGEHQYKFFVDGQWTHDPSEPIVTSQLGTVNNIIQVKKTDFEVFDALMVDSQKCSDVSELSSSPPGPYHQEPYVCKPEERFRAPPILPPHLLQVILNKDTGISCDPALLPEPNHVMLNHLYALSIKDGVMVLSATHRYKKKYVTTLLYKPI
T1 sequence (P54619 whole entry partner, canonical isoform): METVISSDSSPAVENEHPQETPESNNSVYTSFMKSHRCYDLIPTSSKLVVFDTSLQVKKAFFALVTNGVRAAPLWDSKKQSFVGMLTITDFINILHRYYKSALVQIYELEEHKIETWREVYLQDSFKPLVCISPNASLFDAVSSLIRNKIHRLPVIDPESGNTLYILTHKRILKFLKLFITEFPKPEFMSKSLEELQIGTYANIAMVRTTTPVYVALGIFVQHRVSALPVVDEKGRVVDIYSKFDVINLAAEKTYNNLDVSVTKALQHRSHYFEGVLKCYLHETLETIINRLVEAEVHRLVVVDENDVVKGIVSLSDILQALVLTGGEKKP

AMPKα1β1γ1 [2] = molecular target: T1, AMPKα1β1γ1; experiment: SPR, […] series and competition with […] ATP; type: binding
AMPKα1β1γ1 [3] = molecular target: T1, AMPKα1β1γ1; experiment: SPR at […]; also […] inhibition at […] in ADP-Glo kinase assay; type: binding; remark: listed apart in the source
AMPKα1β1γ1 [4] = molecular target: T1, AMPKα1β1γ1; experiment: ADP-Glo kinase assay with SAMS peptide, Lineweaver-Burk kinetics vs ATP; binding also shown by SPR ([…] RU at […]); type: biochemical

Binding 100 μM (RU)^b / AMPK α1:β1:γ1 (AMPKα1β1γ1 [1]): 13.6 RU
SMILES: O=C(O)c1[nH]c2ccccc2c1-c1ccc(-c2ccccc2)cc1 [IND7]

SMILES: CNC(=O)c1ccccc1Oc1nc(Nc2cc(OC)c(OC)c(OC)c2)ncc1Br [SBI-0206965]
SPR, 10-100 μM series and competition with 200 μM ATP (AMPKα1β1γ1 [2]): sensorgrams showed a progressive increase in the binding, which was much larger for SBI-0206965

Binding 100 μM (RU)^b / AMPK α1:β1:γ1 (AMPKα1β1γ1 [3]): 14.6 RU
SMILES: O=C(O)c1[nH]c2ccccc2c1-c1ccc(Oc2ccccc2)cc1 [IND8]

Ki (AMPKα1β1γ1 [4]): 6.9 µM
SMILES: O=C(O)c1[nH]c2ccccc2c1-c1ccc(OCc2ccccc2)cc1 [IND6, 3-(4-(Benzyloxy)phenyl)-1H-indole-2-carboxylic acid]
